Our source for the zone of inhibition values is ChEMBL document CHEMBL3044687, “Microwave-assisted synthesis of some novel and potent antibacterial and antifungal compounds with biological screening” (2012).

Each structure is given as a SMILES string.

Holding throughout (format): functional
Holding throughout (details): read-out: DIZ

Assay [1] relates to Escherichia coli. Briefly: Antibacterial activity against Escherichia coli at 100 ug/ml after 24 hr by disk diffusion method. A general note: Agar diffusion results depend on both activity and mobility in agar.
In assay [2] the test system is Aspergillus niger. Briefly: Antifungal activity against Aspergillus niger at 100 ug/ml after 48 hr by disk diffusion method.
Assay [3] relates to Candida albicans. Briefly: Antifungal activity against Candida albicans at 200 ug/ml after 48 hr by disk diffusion method.
Assay [4] concerns Bacillus subtilis. Briefly: Antibacterial activity against Bacillus subtilis at 50 ug/ml after 24 hr by disk diffusion method.
Assay [5] concerns Pseudomonas aeruginosa. Briefly: Antibacterial activity against Pseudomonas aeruginosa at 200 ug/ml after 24 hr by disk diffusion method.
Assay [6] deals with Aspergillus niger. Briefly: Antifungal activity against Aspergillus niger at 50 ug/ml after 48 hr by disk diffusion method.
In assay [7] the test system is Bacillus subtilis. Briefly: Antibacterial activity against Bacillus subtilis at 100 ug/ml after 24 hr by disk diffusion method.
In assay [8] the test system is Candida albicans. Briefly: Antifungal activity against Candida albicans at 50 ug/ml after 48 hr by disk diffusion method.
Assay [9] relates to Bacillus subtilis. Briefly: Antibacterial activity against Bacillus subtilis at 200 ug/ml after 24 hr by disk diffusion method.
For assay [10], the system named is Staphylococcus aureus. Briefly: Antibacterial activity against Staphylococcus aureus at 100 ug/ml after 24 hr by disk diffusion method.
For assay [11], the system named is Staphylococcus aureus. Briefly: Antibacterial activity against Staphylococcus aureus at 200 ug/ml after 24 hr by disk diffusion method.
In assay [12] the test system is Candida albicans. Briefly: Antifungal activity against Candida albicans at 100 ug/ml after 48 hr by disk diffusion method.
Assay [13] deals with Pseudomonas aeruginosa. Briefly: Antibacterial activity against Pseudomonas aeruginosa at 50 ug/ml after 24 hr by disk diffusion method.
Assay [14] has as its system Escherichia coli. Briefly: Antibacterial activity against Escherichia coli at 50 ug/ml after 24 hr by disk diffusion method.
In assay [15] the test system is Staphylococcus aureus. Briefly: Antibacterial activity against Staphylococcus aureus at 50 ug/ml after 24 hr by disk diffusion method.
Assay [16] relates to Aspergillus niger. Briefly: Antifungal activity against Aspergillus niger at 200 ug/ml after 48 hr by disk diffusion method.
Assay [17] has as its system Escherichia coli. Briefly: Antibacterial activity against Escherichia coli at 200 ug/ml after 24 hr by disk diffusion method.
For assay [18], the system named is Pseudomonas aeruginosa. Briefly: Antibacterial activity against Pseudomonas aeruginosa at 100 ug/ml after 24 hr by disk diffusion method.

On to `CN1CCN(CN2C(=O)NC(c3ccccc3)(c3ccccc3)C2=O)CC1`, for which the zone of inhibition at 100 µg/mL in the assay on Escherichia coli [1] was 13 mm; in the assay with Aspergillus niger [2], 12 mm; in the assay on Bacillus subtilis [7], 12 mm; with Staphylococcus aureus [10], 12 mm; in the assay on Candida albicans [12], 13 mm; in the assay with Pseudomonas aeruginosa [18], 6 mm. Further, the zone of inhibition at 200 µg/mL with Candida albicans [3] came out at 13 mm; with Pseudomonas aeruginosa [5] it was 10 mm; with Bacillus subtilis [9], 19 mm; with Staphylococcus aureus [11], 20 mm; with Aspergillus niger [16] it was 12 mm; with Escherichia coli [17], 16 mm. In addition, the zone of inhibition at 50 µg/mL in the assay with Bacillus subtilis [4] amounted to 4 mm; in the assay with Aspergillus niger [6], 11 mm; in the assay with Candida albicans [8], 12 mm; with Pseudomonas aeruginosa [13] it was 4 mm; in the assay with Escherichia coli [14] it was 6 mm; in the assay with Staphylococcus aureus [15], 6 mm.
For `O=C1NC(c2ccccc2)(c2ccccc2)C(=O)N1Cn1nnc2ccccc21`, the zone of inhibition at 100 µg/mL in the assay on Escherichia coli [1] was determined as 10 mm; in the assay with Aspergillus niger [2], 11 mm; in the assay on Bacillus subtilis [7] it was 14 mm; in the assay with Staphylococcus aureus [10] it was 12 mm; with Candida albicans [12] it was 12 mm; in the assay on Pseudomonas aeruginosa [18], 10 mm. The zone of inhibition at 200 µg/mL in the assay with Candida albicans [3] worked out at 13 mm; with Pseudomonas aeruginosa [5], 14 mm; in the assay on Bacillus subtilis [9], 22 mm; with Staphylococcus aureus [11], 18 mm; in the assay with Aspergillus niger [16] it was 11 mm; in the assay on Escherichia coli [17] it was 18 mm. Also, the zone of inhibition at 50 µg/mL in the assay with Bacillus subtilis [4] was 5 mm; with Aspergillus niger [6], 11 mm; with Candida albicans [8], 11 mm; in the assay on Pseudomonas aeruginosa [13], 6 mm; with Escherichia coli [14], 3 mm; in the assay on Staphylococcus aureus [15], 6 mm.
On to `O=C1NC(c2ccccc2)(c2ccccc2)C(=O)N1Cn1ccnc1`, for which the zone of inhibition at 100 µg/mL in the assay with Escherichia coli [1] is 16 mm; with Aspergillus niger [2] it was 17 mm; in the assay on Bacillus subtilis [7], 11 mm; in the assay on Staphylococcus aureus [10], 11 mm; with Candida albicans [12], 24 mm; with Pseudomonas aeruginosa [18], 10 mm. Moreover, the zone of inhibition at 200 µg/mL in the assay with Candida albicans [3] worked out at 30 mm; in the assay with Pseudomonas aeruginosa [5] it was 20 mm; in the assay on Bacillus subtilis [9], 15 mm; in the assay with Staphylococcus aureus [11] it was 20 mm; with Aspergillus niger [16], 19 mm; with Escherichia coli [17] it was 22 mm. The zone of inhibition at 50 µg/mL is 5 mm in the assay on Bacillus subtilis [4]; 15 mm in the assay with Aspergillus niger [6]; 17 mm in the assay on Candida albicans [8]; 6 mm in the assay on Pseudomonas aeruginosa [13]; 6 mm in the assay with Escherichia coli [14]; 6 mm in the assay on Staphylococcus aureus [15].
Regarding `O=C1NC(c2ccccc2)(c2ccccc2)C(=O)N1Cn1cnc2ccccc21`, the zone of inhibition at 100 µg/mL in the assay with Escherichia coli [1] was found to be 15 mm; in the assay with Aspergillus niger [2] it was 19 mm; with Bacillus subtilis [7], 13 mm; with Staphylococcus aureus [10] it was 13 mm; with Candida albicans [12], 24 mm; in the assay on Pseudomonas aeruginosa [18] it was 11 mm. Also, the zone of inhibition at 200 µg/mL with Candida albicans [3] came out at 32 mm; in the assay on Pseudomonas aeruginosa [5], 14 mm; in the assay on Bacillus subtilis [9], 23 mm; in the assay with Staphylococcus aureus [11], 15 mm; in the assay with Aspergillus niger [16], 32 mm; in the assay with Escherichia coli [17] it was 24 mm. Besides, the zone of inhibition at 50 µg/mL turned out to be 5 mm in the assay with Bacillus subtilis [4]; 16 mm in the assay on Aspergillus niger [6]; 16 mm in the assay on Candida albicans [8]; 6 mm in the assay with Pseudomonas aeruginosa [13]; 7 mm in the assay on Escherichia coli [14]; 5 mm in the assay with Staphylococcus aureus [15].
For the molecule `O=C1NC(c2ccccc2)(c2ccccc2)C(=O)N1CN1C(=O)c2ccccc2C1=O`, the zone of inhibition at 100 µg/mL in the assay with Escherichia coli [1] was determined as 12 mm; in the assay on Aspergillus niger [2], 15 mm; in the assay on Bacillus subtilis [7], 12 mm; in the assay with Staphylococcus aureus [10], 6 mm; with Candida albicans [12], 16 mm; with Pseudomonas aeruginosa [18], 8 mm. Also, the zone of inhibition at 200 µg/mL was 20 mm in the assay with Candida albicans [3]; 10 mm with Pseudomonas aeruginosa [5]; 16 mm with Bacillus subtilis [9]; 9 mm in the assay on Staphylococcus aureus [11]; 16 mm in the assay with Aspergillus niger [16]; 20 mm in the assay on Escherichia coli [17]. The zone of inhibition at 50 µg/mL was 4 mm in the assay with Bacillus subtilis [4]; 12 mm with Aspergillus niger [6]; 15 mm in the assay on Candida albicans [8]; 5 mm with Pseudomonas aeruginosa [13]; 5 mm in the assay with Escherichia coli [14]; 4 mm in the assay with Staphylococcus aureus [15].
With `O=C1NC(c2ccccc2)(c2ccccc2)C(=O)N1CNc1nc2ccccc2s1`, the zone of inhibition at 100 µg/mL in the assay on Escherichia coli [1] was determined as 15 mm; in the assay with Aspergillus niger [2] it was 19 mm; in the assay on Bacillus subtilis [7], 10 mm; in the assay with Staphylococcus aureus [10], 10 mm; in the assay with Candida albicans [12], 18 mm; with Pseudomonas aeruginosa [18] it was 12 mm. In addition, the zone of inhibition at 200 µg/mL is 32 mm in the assay on Candida albicans [3]; 20 mm with Pseudomonas aeruginosa [5]; 21 mm in the assay with Bacillus subtilis [9]; 19 mm in the assay with Staphylococcus aureus [11]; 31 mm in the assay with Aspergillus niger [16]; 23 mm in the assay with Escherichia coli [17]. Moreover, the zone of inhibition at 50 µg/mL with Bacillus subtilis [4] is 7 mm; with Aspergillus niger [6], 16 mm; in the assay on Candida albicans [8], 17 mm; in the assay on Pseudomonas aeruginosa [13], 7 mm; in the assay with Escherichia coli [14], 6 mm; with Staphylococcus aureus [15] it was 5 mm.
Turning to `O=C1NC(c2ccccc2)(c2ccccc2)C(=O)N1CNc1nccs1`, the zone of inhibition at 100 µg/mL is 15 mm with Escherichia coli [1]; 11 mm in the assay with Aspergillus niger [2]; 11 mm in the assay with Bacillus subtilis [7]; 10 mm in the assay with Staphylococcus aureus [10]; 12 mm with Candida albicans [12]; 12 mm with Pseudomonas aeruginosa [18]. The zone of inhibition at 200 µg/mL with Candida albicans [3] was 13 mm; with Pseudomonas aeruginosa [5], 20 mm; in the assay on Bacillus subtilis [9], 19 mm; in the assay with Staphylococcus aureus [11] it was 21 mm; with Aspergillus niger [16], 11 mm; in the assay on Escherichia coli [17] it was 24 mm. Also, the zone of inhibition at 50 µg/mL in the assay with Bacillus subtilis [4] is 5 mm; in the assay with Aspergillus niger [6], 11 mm; in the assay on Candida albicans [8] it was 11 mm; in the assay on Pseudomonas aeruginosa [13], 4 mm; in the assay on Escherichia coli [14], 6 mm; in the assay with Staphylococcus aureus [15] it was 4 mm.
